In experiment [1] the target is Carboxylic ester hydrolase (Equus caballus, UniProt Q9N1N9). Kind of experiment: EqBuChE Inhibition Assay. As to the method:
The in vitro BuChE assay was performed similarly to the method described above. A standard enzyme activity curve was drawn for each enzyme using seven different concentrations ranging from 0.1 U/mL to 1 U/mL and enzyme activity was calculated (one unit of enzyme will hydrolyze 1.0 μmol of acetylthiocholine to thiocholine and acetate per minute). Inhibitory activity was calculated from 100 subtracted by the percentage of enzyme activity.

Experiment [2] has as its target Acetylcholinesterase (Electrophorus electricus, UniProt O42275). Kind of experiment: EeAChE Inhibition Assay. As to the method: The inhibition assay of these compounds for AChE (electrophorus electricus) and BuChE (equine serum) were determined by the spectroscopic method described by Ellman et al. which was adapted for 96-well microplates. 25 The standard compound used was galantamine. A 75 μL of different concentrations of the sample was dissolved in buffer with a maximum of 10% DMSO, 25 μL of ATCI (15 mM), and 125 μL of DTNB 3 mM were added to the wells followed by 25 μL of 0.3 U/mL AChE. The velocity was measured by the increase in the absorbance at 405 nm during 1 min time interval at 25 C in a BIO-TEK ELX800G microplate reader (using Gen5 v.1.05 software).

Sequence of Carboxylic ester hydrolase (Q9N1N9 whole entry): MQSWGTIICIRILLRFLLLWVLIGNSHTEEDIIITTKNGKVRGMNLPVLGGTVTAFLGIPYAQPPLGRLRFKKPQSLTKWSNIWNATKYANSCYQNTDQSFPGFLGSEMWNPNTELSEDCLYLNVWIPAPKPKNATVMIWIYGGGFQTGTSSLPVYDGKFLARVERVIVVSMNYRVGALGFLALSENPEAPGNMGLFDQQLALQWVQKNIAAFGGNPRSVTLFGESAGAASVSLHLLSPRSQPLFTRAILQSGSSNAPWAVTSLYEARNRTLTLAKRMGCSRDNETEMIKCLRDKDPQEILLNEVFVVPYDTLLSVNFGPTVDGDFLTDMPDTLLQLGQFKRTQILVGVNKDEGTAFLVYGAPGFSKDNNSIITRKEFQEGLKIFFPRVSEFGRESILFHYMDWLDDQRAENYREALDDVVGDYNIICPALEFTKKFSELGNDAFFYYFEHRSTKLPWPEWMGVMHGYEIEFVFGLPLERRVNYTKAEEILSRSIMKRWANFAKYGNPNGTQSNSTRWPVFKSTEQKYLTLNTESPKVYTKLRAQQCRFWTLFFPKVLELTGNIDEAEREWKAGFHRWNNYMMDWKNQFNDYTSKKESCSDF
Sequence of Acetylcholinesterase (O42275 whole entry): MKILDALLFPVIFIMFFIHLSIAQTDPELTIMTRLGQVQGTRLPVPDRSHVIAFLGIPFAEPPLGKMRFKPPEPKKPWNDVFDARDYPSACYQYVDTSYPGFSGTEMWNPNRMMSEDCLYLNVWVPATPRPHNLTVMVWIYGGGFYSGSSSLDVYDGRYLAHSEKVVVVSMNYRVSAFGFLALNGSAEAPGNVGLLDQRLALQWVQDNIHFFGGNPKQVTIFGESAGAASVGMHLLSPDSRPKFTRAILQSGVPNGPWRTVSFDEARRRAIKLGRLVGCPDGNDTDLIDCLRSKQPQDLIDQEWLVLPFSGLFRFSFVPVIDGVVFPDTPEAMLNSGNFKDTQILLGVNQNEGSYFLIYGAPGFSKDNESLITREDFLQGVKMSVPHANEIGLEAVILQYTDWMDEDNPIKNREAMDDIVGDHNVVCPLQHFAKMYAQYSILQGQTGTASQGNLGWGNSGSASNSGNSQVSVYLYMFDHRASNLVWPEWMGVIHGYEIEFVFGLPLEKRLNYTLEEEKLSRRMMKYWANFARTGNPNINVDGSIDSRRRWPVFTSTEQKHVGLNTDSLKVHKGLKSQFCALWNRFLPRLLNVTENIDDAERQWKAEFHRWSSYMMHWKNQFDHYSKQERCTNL

One may read the IC50 as the concentration at which inhibition is half-maximal. For `O=C1NCC(O)c2ccccc21` (stereo unspecified) [Isoquinolin-1(2H)-ones, 1a], the figures for the IC50 in experiment [1] and in experiment [2] were 807 µM and 136 µM, respectively.

In the case of `COc1ccc2c3c1O[C@H]1C[C@@H](O)C=C[C@@]31CCN(C)C2` [galantamine], inhibition in experiment [1] was half-maximal at 61.9 µM (IC50). Take `O=C1NCCC(O)c2ncccc21` (stereo unspecified) [Isoquinolin-1(2H)-ones, 4a]: the IC50 is greater than 1500 µM in experiment [1] and 550 µM in experiment [2]. The corresponding values for `O=C1NCC(O)c2cc(Cl)ccc21` (stereo unspecified) [Isoquinolin-1(2H)-ones, 1d] are 226 µM and greater than 1500 µM. For `O=C1NCC(O)c2ccsc21` (stereo unspecified) [Isoquinolin-1(2H)-ones, 5], the figures for the half-maximal inhibitory concentration (IC50) in experiment [1] and in experiment [2] were greater than 1500 µM and 1370 µM, respectively.

Regarding `Cc1ccc2c(n1)C(O)CCNC2=O` (stereo unspecified) [Isoquinolin-1(2H)-ones, 4b], the IC50 in experiment [1] and in experiment [2] was greater than 1500 µM each time. As to `Cc1ccc2c(c1)C(=O)NCC2O` (stereo unspecified) [Isoquinolin-1(2H)-ones, 1b], the IC50 is 352 µM in experiment [1] and greater than 1500 µM in experiment [2].

On to `Cc1ccc2c(c1)C(=O)NCCC2O` (stereo unspecified) [Isoquinolin-1(2H)-ones, 2b], for which the IC50 in experiment [1] worked out at 108 µM; in experiment [2] it was 536 µM. The corresponding values for `Cc1ccc2c(c1)C(O)CNC2=O` (stereo unspecified) [Isoquinolin-1(2H)-ones, 1c] are greater than 1500 µM and greater than 1500 µM.

For the compound `COC1CNC(=O)c2ccccc21` (stereo unspecified) [Isoquinolin-1(2H)-ones, 1f], the half-maximal inhibitory concentration (IC50) turned out to be 154 µM in experiment [1] and 89.5 µM in experiment [2]. In the same order, the values of `COc1ccc2c(c1)C(=O)NCC2O` (stereo unspecified) [Isoquinolin-1(2H)-ones, 1e] are greater than 1500 µM and 311 µM.

The values are drawn from BindingDB's records for doi:10.1016/j.bioorg.2016.05.004 (Universidade De Evora, 2016).
